One experiment has as its target Tubulin (Homo sapiens) (UniProt P68371+Q9H4B7+P0DPH7+P68366+Q13509+Q71U36+P04350+Q3ZCM7+P07437+P68363+Q9BQE3+Q6PEY2+Q13885+Q9BVA1+Q9BUF5). Briefly: Inhibition of [3H]Colchicine binding to tubulin (unknown origin) at 1 uM measured after 10 mins by DEAE-Cellulose filter method relative to control. It is filed as protein-complex assay.
Experiment [1] can be described thus: Cytotoxicity against human U-343MG cells assessed as cell growth inhibition measured after 72 hrs by MTS colorimetric assay. It is filed as functional, cell-based.
Experiment [2] relates to U-87 MG. Briefly: Antitumor activity against human U-87MG cells xenografted in BALB/c nu/nu mouse assessed as reduction in tumor volume at 25 mg/kg, ip administered every 2 days for 35 days. It counts as functional, organism-based. The note with it: U-87MG ATCC, time 35.0 day. A general note: In xenograft studies the graft and the host belong to different species.
Experiment [3] deals with U-87 MG. Briefly: Antitumor activity against human U-87MG cells xenografted in BALB/c nu/nu mouse assessed as reduction in glioma tumors at 25 mg/kg, ip administered every 2 days for 35 days by hematoxylin and eosin staining based assay. It is filed as functional, organism-based. The conditions noted are these: U-87MG ATCC, time 35.0 day.
In experiment [4] the test system is U-87 MG. Briefly: Antitumor activity against human U-87MG cells xenografted in BALB/c nu/nu mouse assessed as reduction in Ki67 expression at 25 mg/kg, ip administered every 2 days for 35 days by DAPI staining based immunofluorescence analysis. It is filed as functional, organism-based. The conditions noted are these: U-87MG ATCC, time 35.0 day.
The test system of experiment [5] is U-87 MG. Briefly: Antitumor activity against human U-87MG cells xenografted in BALB/c nu/nu mouse assessed as reduction in Bcl2 protein expression at 25 mg/kg, ip administered every 2 days for 35 days by DAPI staining based immunofluorescence analysis. It is filed as functional, organism-based. The note with it: U-87MG ATCC, time 35.0 day.
Experiment [6] concerns KBM5. Briefly: Potentiation of ponatinib-induced mitochondrial membrane depolarization in human KBM5 cells expressing T315I mutant at 5 nM measured upto 48 hrs by JC-1 staining based flow cytometry analysis. It counts as functional, cell-based. The conditions noted are these: time hrs <=48. On the technique in general: A flow cytometer gives signals particle by particle.
Experiment [7] deals with KBM5. Briefly: Induction of apoptosis in human KBM5 cells expressing T315I mutant assessed as increase in Bcr-Abl expression at 1 to 10 uM measured after 24 hrs by western blot analysis. It counts as functional, cell-based. The conditions noted are these: dose 1-10 µM. (A western blot detects proteins with antibodies after separation by electrophoresis.)
The target of experiment [8] is T1, DNA topoisomerase 1 (Homo sapiens) (UniProt P11387).
T1 sequence (whole entry): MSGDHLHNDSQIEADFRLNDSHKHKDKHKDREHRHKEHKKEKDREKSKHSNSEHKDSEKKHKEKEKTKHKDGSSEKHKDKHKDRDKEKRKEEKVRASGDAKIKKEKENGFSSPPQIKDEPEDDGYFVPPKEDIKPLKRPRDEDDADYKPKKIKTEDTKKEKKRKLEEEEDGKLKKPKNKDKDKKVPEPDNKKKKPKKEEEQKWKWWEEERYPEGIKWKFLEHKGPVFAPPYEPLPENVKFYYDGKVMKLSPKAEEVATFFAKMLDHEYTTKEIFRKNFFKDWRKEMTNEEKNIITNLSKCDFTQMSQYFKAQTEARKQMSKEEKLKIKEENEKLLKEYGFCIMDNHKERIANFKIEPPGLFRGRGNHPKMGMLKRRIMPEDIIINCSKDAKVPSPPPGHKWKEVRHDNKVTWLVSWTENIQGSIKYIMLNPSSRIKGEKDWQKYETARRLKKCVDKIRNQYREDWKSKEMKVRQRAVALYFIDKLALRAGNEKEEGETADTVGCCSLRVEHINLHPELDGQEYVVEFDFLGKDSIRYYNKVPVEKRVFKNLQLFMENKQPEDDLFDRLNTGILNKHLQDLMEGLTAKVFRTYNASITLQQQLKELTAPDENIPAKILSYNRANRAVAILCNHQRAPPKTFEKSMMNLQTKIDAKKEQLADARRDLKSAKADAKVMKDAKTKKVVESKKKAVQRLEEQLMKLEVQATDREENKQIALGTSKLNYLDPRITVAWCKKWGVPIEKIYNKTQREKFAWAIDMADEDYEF
Briefly: Inhibition of human recombinant topoisomerase I using supercoiled pHOT1 plasmid DNA as substrate at 10 to 100 uM measured after 1 hr by agarose gel electrophoresis analysis. The note with it: dose 10-100 µM.

In experiment [9] the target is DNA topoisomerase II (Homo sapiens) (UniProt P11388+Q02880). Briefly: Inhibition of human topoisomerase II assessed as reduction in decantenation using kinetoplast DNA as a substrate at 10 to 50 uM measured after 1 hr by ethidium bromide staining based agarose gel electrophoresis analysis. It counts as protein assay. The note with it: dose 10-50 µM.

SMILES strings stand for the structures. pIC50: −log10 of the molar value. Activity calls are given as the source filed them. The calls are words filed in the database; no cut-off is given here.

For `COc1cc(C(=O)c2cn(-c3ccc(C)cc3)cc2-c2ccsc2)cc(OC)c1OC`, the inhibition (in general, the relative decrease from the control value, in per cent) on Tubulin (Homo sapiens) was found to be 71%. Besides, the pIC50 – broadly, the negative decadic logarithm of the IC50, by convention in mol/L – in [1] is 7.73. The result in the experiment on U-87 MG [2], in the experiment on U-87 MG [3], with U-87 MG [4], with U-87 MG [5], in the experiment with KBM5 [6] and in the experiment with KBM5 [7] was Active. Besides, the inhibition entry in experiment [8] and in [9] was “inactive” each time.

Source of the values: ChEMBL document CHEMBL4837226, “Discovery of pyrrole derivatives for the treatment of glioblastoma and chronic myeloid leukemia” (Eur J Med Chem, 2021).
